According to ChEMBL document CHEMBL1133967, “New leads for selective inhibitors of alpha-L-fucosidases. Synthesis and glycosidase inhibitory activities of [(2R,3S,4R)-3,4-dihydroxypyrrolidin-2-yl]furan derivatives” (Bioorg Med Chem Lett, 2001):
Activity calls are given as the source filed them. The rule behind the calls is not given here.

Key:
Prunus dulcis [1] = test: Inhibitory activity against Alpha-mannosidase of Almonds at 1 mM; No inhibition
[2] = target: T1, Tissue alpha-L-fucosidase (Homo sapiens) (UniProt P04066); test: Inhibitory activity against alpha-L-Fucosidase of human placenta at 1 mM; No inhibition
T1 sequence (whole entry): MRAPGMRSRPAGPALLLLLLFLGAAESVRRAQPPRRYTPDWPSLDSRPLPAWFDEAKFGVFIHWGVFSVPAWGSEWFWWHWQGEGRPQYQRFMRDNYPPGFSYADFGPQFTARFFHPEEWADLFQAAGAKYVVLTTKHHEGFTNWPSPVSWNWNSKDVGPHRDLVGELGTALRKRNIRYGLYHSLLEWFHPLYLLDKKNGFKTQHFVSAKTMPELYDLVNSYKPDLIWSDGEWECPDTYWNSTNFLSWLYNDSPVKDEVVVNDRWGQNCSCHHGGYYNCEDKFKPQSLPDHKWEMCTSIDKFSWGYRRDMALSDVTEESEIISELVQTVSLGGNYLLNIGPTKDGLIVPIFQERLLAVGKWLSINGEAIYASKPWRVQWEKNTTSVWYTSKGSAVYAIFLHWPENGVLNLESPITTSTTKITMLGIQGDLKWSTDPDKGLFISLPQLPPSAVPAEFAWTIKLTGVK

Canavalia ensiformis [3] = test: Inhibitory activity against Alpha-mannosidase of Jack bean at 1 mM; No inhibition
[4] = target: Glucoamylase (Aspergillus niger) (UniProt P69328); test: Inhibitory activity against Amyloglucosidase of Aspergillus niger at 1 mM; No inhibition
[5] = target: T2, Beta-galactosidase (Bos taurus) (UniProt Q58D55); test: Percent inhibition against Beta-D-galactosidase of bovine liver at 1 mM
T2 sequence (whole entry): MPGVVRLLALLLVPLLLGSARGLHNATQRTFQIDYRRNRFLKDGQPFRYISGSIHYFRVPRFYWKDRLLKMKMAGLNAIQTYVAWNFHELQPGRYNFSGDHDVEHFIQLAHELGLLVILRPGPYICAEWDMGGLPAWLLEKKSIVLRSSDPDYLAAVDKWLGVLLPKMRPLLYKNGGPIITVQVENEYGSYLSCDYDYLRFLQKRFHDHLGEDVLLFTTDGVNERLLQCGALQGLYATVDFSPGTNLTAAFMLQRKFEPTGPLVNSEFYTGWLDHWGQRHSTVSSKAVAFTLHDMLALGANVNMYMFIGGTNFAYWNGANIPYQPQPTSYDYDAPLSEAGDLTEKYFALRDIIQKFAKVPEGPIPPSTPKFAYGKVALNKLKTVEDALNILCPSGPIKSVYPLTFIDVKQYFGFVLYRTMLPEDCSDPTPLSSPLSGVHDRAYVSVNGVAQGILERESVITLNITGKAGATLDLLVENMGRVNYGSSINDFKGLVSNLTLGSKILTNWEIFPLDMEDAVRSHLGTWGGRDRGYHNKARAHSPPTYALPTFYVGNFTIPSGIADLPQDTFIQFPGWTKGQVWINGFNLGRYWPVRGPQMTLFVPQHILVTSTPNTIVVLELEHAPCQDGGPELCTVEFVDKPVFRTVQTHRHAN

[6] = target: T3, Beta-galactosidase (Aspergillus niger) (UniProt P29853); test: Inhibitory activity against Beta-D-galactosidase of Aspergillus niger at 1 mM; No inhibition
T3 sequence (whole entry): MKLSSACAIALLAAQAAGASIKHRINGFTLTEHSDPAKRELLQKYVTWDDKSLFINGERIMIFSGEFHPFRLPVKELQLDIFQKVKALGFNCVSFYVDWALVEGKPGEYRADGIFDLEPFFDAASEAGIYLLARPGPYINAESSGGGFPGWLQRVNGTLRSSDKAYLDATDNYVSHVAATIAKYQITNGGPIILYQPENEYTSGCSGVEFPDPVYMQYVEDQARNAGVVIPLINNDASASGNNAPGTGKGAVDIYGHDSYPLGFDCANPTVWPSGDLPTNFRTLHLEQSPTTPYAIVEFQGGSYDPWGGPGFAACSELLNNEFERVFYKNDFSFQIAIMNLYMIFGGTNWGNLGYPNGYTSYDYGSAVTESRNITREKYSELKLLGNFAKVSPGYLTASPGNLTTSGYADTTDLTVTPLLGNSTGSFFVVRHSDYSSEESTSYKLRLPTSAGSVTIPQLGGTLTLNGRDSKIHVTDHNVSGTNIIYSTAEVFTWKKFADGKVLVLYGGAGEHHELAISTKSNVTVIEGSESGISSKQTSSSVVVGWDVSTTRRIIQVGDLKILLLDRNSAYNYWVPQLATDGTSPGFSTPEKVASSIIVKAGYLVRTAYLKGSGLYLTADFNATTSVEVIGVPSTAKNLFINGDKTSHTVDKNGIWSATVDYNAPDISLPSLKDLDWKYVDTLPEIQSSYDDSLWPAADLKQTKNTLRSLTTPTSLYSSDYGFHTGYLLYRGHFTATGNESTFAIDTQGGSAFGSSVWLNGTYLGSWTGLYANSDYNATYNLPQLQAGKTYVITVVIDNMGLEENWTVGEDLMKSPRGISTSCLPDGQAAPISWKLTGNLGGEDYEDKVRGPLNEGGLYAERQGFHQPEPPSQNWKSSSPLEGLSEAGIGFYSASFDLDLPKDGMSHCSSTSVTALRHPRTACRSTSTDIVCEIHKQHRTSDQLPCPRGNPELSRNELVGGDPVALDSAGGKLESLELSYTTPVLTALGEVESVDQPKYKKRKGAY

[7] = target: Beta-galactosidase (Escherichia coli) (UniProt Q8VNN2); test: Inhibitory activity against Beta-D-galactosidase of Escherichia coli at 1 mM; No inhibition
maltase (Oryza sativa) [8] = test: Inhibitory activity against maltase of rice at 1 mM
[9] = test system: maltase (Saccharomyces cerevisiae); test: Inhibitory activity against maltase of yeast at 1 mM; No inhibition
[10] = test system: isomaltase (Saccharomyces cerevisiae); test: Inhibitory activity against isomaltase of baker yeast at 1 mM; No inhibition
Prunus dulcis [11] = test: Inhibitory activity against Beta-glucosidase of almonds at 1 mM; No inhibition
Rhizopus = test: Inhibitory activity against Amyloglucosidase of Rhizopus mold at 1 mM; No inhibition
Canavalia ensiformis [12] = test: Inhibitory activity against Beta-D-galactosidase of Jack bean at 1 mM; No inhibition
Helix pomatia = test: Inhibitory activity against Beta-mannosidase of Helix pomatia at 1 mM; No inhibition
Coffea arabica = test: Inhibitory activity against Alpha-galactosidase of coffee bean at 1 mM; No inhibition
Escherichia coli = test: Inhibitory activity against Alpha-galactosidase of Escherichia coli at 1 mM; No inhibition
Bos taurus [13] = species: Bos taurus; test: Inhibitory activity against alpha-L-Fucosidase of bovine epididymis at 1 mM; No inhibition
Aspergillus niger = test: Inhibitory activity against Alpha-galactosidase of Aspergillus niger at 1 mM; No inhibition
[14] = test system: Beta-N-acetylglucosaminidase (Canavalia ensiformis); test: Inhibitory activity against Beta-N-acetylglucosaminidase of Jack bean at 1 mM; No inhibition
Aspergillus oryzae = test: Inhibitory activity against Beta-D-galactosidase of Aspergillus oryzae at 1 mM; No inhibition
[15] = test system: Caldicellulosiruptor saccharolyticus; test: Inhibitory activity against Beta-glucosidase of Caldocellum saccharolyticum at 1 mM; No inhibition
Gallus gallus = species: Gallus gallus; test: Inhibitory activity against alpha-N-acetylgalactosaminidase of chicken liver at 1 mM; No inhibition
[16] = test system: Beta-N-acetylglucosaminidase (Bos taurus); test: Inhibitory activity against Beta-N-acetylglucosaminidase of bovine epididymis A at 1 mM; No inhibition
[17] = test system: Beta-N-acetylglucosaminidase (Bos taurus); test: Inhibitory activity against Beta-N-acetylglucosaminidase of bovine epididymis B at 1 mM; No inhibition
[18] = target: T1, Tissue alpha-L-fucosidase (Homo sapiens); test: Percent inhibition against alpha-L-Fucosidase of human placenta at 1 mM
Canavalia ensiformis [19] = test: Percent inhibition against Alpha-mannosidase of Jack bean at 1 mM
[20] = target: T3, Beta-galactosidase (Aspergillus niger); settings: 1 mM
Description: Percent inhibition against Beta-D-galactosidase of Aspergillus niger at 1 mM

[21] = target: T4, Tissue alpha-L-fucosidase (Homo sapiens, UniProt P04066); test: Inhibitory concentration against alpha-L-Fucosidase of human placenta
T4 sequence (P04066 whole entry): T1 sequence (whole entry)

maltase (Oryza sativa) [22] = test: Inhibitory activity against maltase of rice at 1 mM; No inhibition
Bos taurus [23] = species: Bos taurus; test: Percent inhibition against alpha-L-Fucosidase of bovine epididymis at 1 mM
Prunus dulcis [24] = test: Percent inhibition against Alpha-mannosidase of Almonds at 1 mM
[25] = target: Glucoamylase (Aspergillus niger) (UniProt P69328); test: Percent inhibition against Amyloglucosidase of Aspergillus niger at 1 mM

Sequence of Glucoamylase (Aspergillus niger) (P69328 whole entry): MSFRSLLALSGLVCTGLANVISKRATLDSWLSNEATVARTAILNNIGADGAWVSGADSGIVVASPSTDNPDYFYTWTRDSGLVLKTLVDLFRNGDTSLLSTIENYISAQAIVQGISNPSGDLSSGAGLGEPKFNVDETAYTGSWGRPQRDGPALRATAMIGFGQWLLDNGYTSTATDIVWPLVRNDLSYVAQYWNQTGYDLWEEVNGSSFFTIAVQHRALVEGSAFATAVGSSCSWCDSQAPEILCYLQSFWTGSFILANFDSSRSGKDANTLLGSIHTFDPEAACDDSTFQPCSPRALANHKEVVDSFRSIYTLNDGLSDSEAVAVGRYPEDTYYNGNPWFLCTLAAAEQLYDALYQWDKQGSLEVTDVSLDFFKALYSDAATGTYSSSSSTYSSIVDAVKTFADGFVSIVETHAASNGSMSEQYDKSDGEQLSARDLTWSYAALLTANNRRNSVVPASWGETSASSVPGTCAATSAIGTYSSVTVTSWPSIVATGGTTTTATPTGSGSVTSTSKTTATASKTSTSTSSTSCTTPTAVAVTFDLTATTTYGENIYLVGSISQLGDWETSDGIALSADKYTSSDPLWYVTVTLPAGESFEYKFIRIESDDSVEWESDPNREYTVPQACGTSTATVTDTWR
Sequence of Beta-galactosidase (Escherichia coli) (Q8VNN2 whole entry, looked up): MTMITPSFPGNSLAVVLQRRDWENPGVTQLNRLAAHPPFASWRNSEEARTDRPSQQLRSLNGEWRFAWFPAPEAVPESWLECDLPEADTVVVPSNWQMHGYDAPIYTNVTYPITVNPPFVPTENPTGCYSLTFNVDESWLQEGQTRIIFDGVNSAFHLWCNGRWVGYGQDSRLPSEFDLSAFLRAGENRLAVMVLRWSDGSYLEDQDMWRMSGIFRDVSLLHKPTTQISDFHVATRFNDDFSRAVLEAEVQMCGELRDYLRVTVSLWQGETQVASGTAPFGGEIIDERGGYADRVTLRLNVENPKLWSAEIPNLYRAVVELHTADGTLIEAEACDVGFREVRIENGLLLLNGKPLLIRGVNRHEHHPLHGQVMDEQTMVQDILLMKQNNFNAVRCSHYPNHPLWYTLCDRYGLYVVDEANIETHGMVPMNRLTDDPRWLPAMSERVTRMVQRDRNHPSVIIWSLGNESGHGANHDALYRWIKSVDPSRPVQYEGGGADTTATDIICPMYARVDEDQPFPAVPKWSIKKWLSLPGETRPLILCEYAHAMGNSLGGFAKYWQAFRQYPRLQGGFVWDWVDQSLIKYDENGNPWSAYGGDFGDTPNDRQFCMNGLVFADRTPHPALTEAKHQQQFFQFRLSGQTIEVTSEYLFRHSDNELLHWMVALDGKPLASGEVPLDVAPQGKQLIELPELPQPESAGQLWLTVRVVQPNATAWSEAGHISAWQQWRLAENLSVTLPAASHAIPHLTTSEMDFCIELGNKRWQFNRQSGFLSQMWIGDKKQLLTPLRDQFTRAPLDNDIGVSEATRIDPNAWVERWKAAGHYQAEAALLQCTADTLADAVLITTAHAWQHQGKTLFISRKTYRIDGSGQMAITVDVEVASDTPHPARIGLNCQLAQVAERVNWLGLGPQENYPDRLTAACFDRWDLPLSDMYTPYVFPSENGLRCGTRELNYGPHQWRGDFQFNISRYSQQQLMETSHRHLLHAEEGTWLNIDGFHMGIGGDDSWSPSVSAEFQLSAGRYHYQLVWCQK

| SMILES | inhibition (Prunus dulcis [1]) | inhibition (Canavalia ensiformis [3]) | inhibition [4] | inhibition [5] | inhibition [6] | inhibition [7] | inhibition [9] | inhibition [10] | inhibition (Prunus dulcis [11]) | inhibition (Rhizopus) | inhibition (Canavalia ensiformis [12]) | inhibition (Helix pomatia) | inhibition (Coffea arabica) | inhibition (Escherichia coli) | inhibition (Aspergillus niger) | inhibition [14] | inhibition (Aspergillus oryzae) | inhibition [15] | inhibition (Gallus gallus) | inhibition [16] | also measured |
| --- | --- | --- | --- | --- | --- | --- | --- | --- | --- | --- | --- | --- | --- | --- | --- | --- | --- | --- | --- | --- | --- |
| Cc1oc(C2NCC(O)C2O)cc1C(=O)O (configuration not stated) | inactive | inactive | inactive | 30% | inactive | inactive | inactive | inactive | inactive | inactive | inactive | No inhibition | inactive | inactive | inactive | inactive | inactive | No inhibition | inactive | inactive | inhibition [2]: inactive; inhibition (maltase (Oryza sativa) [8]): No inhibition; inhibition (Bos taurus [13]): inactive; inhibition [17]: inactive |
| Cc1oc(C2NCC(O)C2O)cc1C(=O)Nc1ccccc1 (configuration not stated) | inactive | inactive | inactive | 39% | inactive | inactive | inactive | inactive | inactive | inactive | inactive | No inhibition | inactive | inactive | inactive | inactive | inactive | No inhibition | inactive | inactive | IC50 [21]: 1000 µM; inhibition [18]: 51%; inhibition (maltase (Oryza sativa) [22]): inactive; inhibition (Bos taurus [23]): < 10%; inhibition [17]: inactive |
| Cc1oc(C2NCC(O)C2O)cc1C(=O)NC(C)C (configuration not stated) |  |  |  | 38% | inactive | inactive |  |  |  |  |  |  |  |  |  |  |  |  |  |  | inhibition (Prunus dulcis [24]): 29%; inhibition [25]: 23% |
| Cc1oc(C2NCC(O)C2O)cc1CO (configuration not stated) | inactive | inactive | inactive | 50% | inactive | inactive | inactive | inactive | inactive | inactive | inactive | No inhibition | inactive | inactive | inactive | inactive | inactive | No inhibition | inactive | inactive | inhibition [2]: inactive; inhibition (maltase (Oryza sativa) [22]): inactive; inhibition (Bos taurus [13]): inactive; inhibition [17]: inactive |

Now from value to compound, other results behind:

| inhibition (Prunus dulcis [1]) | inhibition (Canavalia ensiformis [3]) | inhibition [4] | inhibition [5] | inhibition [6] | inhibition [7] | inhibition [9] | inhibition [10] | inhibition (Prunus dulcis [11]) | inhibition (Rhizopus) | inhibition (Canavalia ensiformis [12]) | inhibition (Helix pomatia) | inhibition (Coffea arabica) | inhibition (Escherichia coli) | inhibition (Aspergillus niger) | inhibition [14] | inhibition (Aspergillus oryzae) | inhibition [15] | inhibition (Gallus gallus) | inhibition [16] | SMILES | also measured |
| --- | --- | --- | --- | --- | --- | --- | --- | --- | --- | --- | --- | --- | --- | --- | --- | --- | --- | --- | --- | --- | --- |
| inactive |  | inactive | 57% |  | inactive |  |  |  |  |  |  |  |  |  |  |  |  |  |  | CCOC(=O)c1cc(C2NCC(O)C2O)oc1C (configuration not stated) | inhibition [18]: 76%; inhibition (Canavalia ensiformis [19]): 38%; inhibition [20]: 80% |
|  |  | inactive | 52% | inactive | inactive |  |  |  |  |  |  |  |  |  |  |  |  |  |  | CCNC(=O)c1cc(C2NCC(O)C2O)oc1C (configuration not stated) | inhibition (Canavalia ensiformis [19]): 29%; inhibition (Prunus dulcis [24]): 32% |
|  |  | inactive | 58% | inactive | inactive |  |  |  |  |  |  |  |  |  |  |  |  |  |  | CCN(CC)C(=O)c1cc(C2NCC(O)C2O)oc1C (configuration not stated) | inhibition (Canavalia ensiformis [19]): 27%; inhibition (Prunus dulcis [24]): 31% |
